Results: PMC10347550, “Cyclic Ruthenium-Peptide Conjugates as Integrin-Targeting Phototherapeutic Prodrugs for the Treatment of Brain Tumors” (Journal of the American Chemical Society, 2023)

How the values were obtained:
[1] = Biodistribution of Ru by ICP-OES; assay type: in vivo, mice; settings: for Ru content, Heart / Ru content, Kidney / Ru content, Liver / Ru content, Lung / Ru content, Spleen / Ru content, Tumor: U87MG tumor-bearing nude mice, ICP-OES, n = 3, ± SD
Procedure: (§1) All animal studies were approved by the Institutional Animal Care and Use Committee of the US National Institutes of Health and were performed according to the relevant guidelines (8th edition, 2011). Female BALB/c nude mice (6 weeks old) were purchased from Shanghai SLAC Laboratory Animal Co. LTD (Shanghai, China). Tumor-bearing mice were obtained by subcutaneously injecting U87MG tumor cells (2 × 10^6 cells per mouse, dispersed in 100 μL of FBS) into the right hind limb and waiting for 15 days until the tumor volume reached 50–100 mm^3.
The Blab/c nude mice bearing U87MG tumors were randomly assigned to two groups (N = 15) and received an intravenous injection of [1]Cl2 (7.7 mg/kg) or [2]Cl2 (5 mg/kg) at the same molar dose. Then, the mice were sacrificed at 2, 6, 12, 18, and 24 h post-injection (each time point contained 3 mice). The main organs (heart, liver, spleen, kidney, lung) and tumor tissue were dissected. Then, around 1 g of organs and tumors was lysed in a 7 mL mixture solution containing 5 mL of 65% HNO3 and 2 mL of 30% (w/w) H2O2 at 100 °C. After 12 h, all solutions had evaporated, and 5 mL of aqueous solution containing 2% HNO3 was added. The Ru content in all samples was measured by ICP-OES (JY-Horiba ICP-OES Ultima 2).

[2] = Nanoaggregation in Opti-MEM by DLS and TEM; assay type: physicochemical; settings: 50 μM in Opti-MEM with 2.5% FCS, dark, 24 h (Figure S20)
Procedure: DLS was used to determine the distribution of particles in complex solutions (50 μM) in Opti-MEM (Gibco complete medium 11058-021, supplemented with 0.2% v/v penicillin/streptomycin (P/S), and 1% v/v glutamine) with or without 2.5% fetal calf serum (FCS) proteins via a ZEN1600 Zetasizer Nano instrument (Malvern Instruments Limited) operated with a 633 nm laser.
The TEM experiments were carried out with a TEM JEOL 1010:100 kV transmission electron microscope using a Formvar/carbon-coated copper grid (Polysciences Inc.). For the preparation of samples, a 1 mM stock aqua solution was diluted to 50 μM by Opti-MEM, after which, each drop (15 μL) of the complex solution was deposited on a parafilm (Bemis, HS234526C). The grids (Electron Microscopy Sciences, 71137) were placed on top of the drops for 5 min and then the excess liquid on the grid was removed with filter paper and air dried for 2 h for the TEM measurement. The TEM measurements were carried out under vacuum conditions.

U87MG cells = assay: 2D cytotoxicity assay, 24 h DLI & no wash, SRB endpoint; assay type: cell-based, human; settings: normoxic 2D monolayer U87MG; for PI: mixture of Δ and Λ isomers (Figure S34a); for EC50: mixture of Δ and Λ isomers, green light 520 nm, 13.1 J/cm^2 (Figure S34a), read-out: EC50,light
Procedure: For each complex, two identical plates were prepared, one of which was irradiated with light, while the other was used as a dark control. […] Finally, at t = 96 h, 100 μL of cold trichloroacetic acid (10% w/v) was added to each well to fix the cells, and all plates were then transferred to a 4 °C refrigerator for 48 h before performing an SRB cell quantification endpoint assay.[72] Trichloroacetic acid was first removed and each plate was gently washed with demi water 3–5 times. Then, each well was dried in the air, and 100 μL of 0.6% SRB solution (0.6% w/v in 1% v/v acetic acid/H2O solution) was added into each well where it was allowed to stain for 30 min. Then, the plates were washed 3–5 times using an acetic acid solution (1% v/v). Once the plate was washed it was allowed to dry overnight. Then, 200 μL of 10 mM Tris base buffer was added to each well and the plate was allowed to sit on an orbital shaker for 0.5–16 h. After mixing, the absorbance of each well was determined by an M1000 Tecan Reader, reading at 510 nm. All experiments were conducted in independent biological triplicate. The obtained data were analyzed with Graphpad Prism 5 using the dose–response two-parameter Hill slope equation (eq 1) to obtain the half-maximal effective concentrations EC50 (defined as the concentration of drug that kills 50% of cells, compared to the untreated control). [drawing 1] 1

subcutaneous U87MG tumor = assay: In vivo tumor inhibition study; parameters: species or system mice; settings: for TUNEL staining of tumor slices: day 7, combined with 520 nm laser irradiation; for effect of light irradiation on tumor growth, light group compared to dark group: single i.v. dose day 0 ([1]Cl2 7.7 mg/kg, [2]Cl2 5 mg/kg), 520 nm laser 60 J/cm^2 at DLI 12 h, tumor volume over 15 days
Procedure: as §1
The mice bearing U87MG solid tumors were first randomly divided into 6 groups (N = 5): PBS, light, [1]Cl2, [2]Cl2, [1]Cl2 + light, and [2]Cl2 + light. The injectable solution of [1]Cl2 or [2]Cl2 was obtained by diluting the stock solution of the compound in DMSO (10 mg/mL) 10 times by RPMI-1640 medium containing 10% FBS, 100 units/mL penicillin, and 100 μg/mL streptomycin. The injection doses of [1]Cl2 and [2]Cl2 were set as 7.7, 5 mg/kg, respectively (injection volume = 100 μL of the same molar weight of Ru in the last four groups). In groups 2, 5, and 6, laser irradiation (520 nm, 100 mW/cm^2, 5 min) was carried out twice at 12 h post-injection, with a 5 min interval. Accordingly, the total laser dose for each illumination was 100 mW/cm^2, 10 min, and 60 J/cm^2. Treatments in all groups were carried out only once on day 0. Digital photos of tumor-bearing mice, the tumor size (length and width, measured with a caliper), and mouse body weight in all groups were recorded every third day. The tumor volume was calculated according to the standard formula: 0.5 × length × width^2. Both the average tumor volume and body weight were followed for 15 days. On day 7, one mouse from each group was sacrificed and then the tumor tissue was dissected and fixed with 10% paraformaldehyde. The tumor cell damage and apoptosis and necrosis conditions were evaluated by H&E or TUNEL stained protocols. On day 15 (the end of the tumor treatment period), all nude mice were humanly sacrificed, and the main organs (heart, liver, spleen, kidney, and lung) and tumors were resected. Digital photographs of tumors in each group were immediately obtained. All normal tissues were fixed with 10% paraformaldehyde and further analyzed in accordance with the H&E staining protocol, to estimate their off-target side effect after various treatments.

[3] = 2 h after i.v. injection of [1]Cl2 7.7 mg/kg or [2]Cl2 5 mg/kg
[4] = 6 h after i.v. injection of [1]Cl2 7.7 mg/kg or [2]Cl2 5 mg/kg
[5] = 12 h after i.v. injection of [1]Cl2 7.7 mg/kg or [2]Cl2 5 mg/kg
[6] = 18 h after i.v. injection of [1]Cl2 7.7 mg/kg or [2]Cl2 5 mg/kg
[7] = 24 h after i.v. injection of [1]Cl2 7.7 mg/kg or [2]Cl2 5 mg/kg

| Compound | Ru content, Heart [1, 3] | Ru content, Kidney [1, 3] | Ru content, Liver [1, 3] | Ru content, Lung [1, 3] | Ru content, Spleen [1, 3] | Ru content, Tumor [1, 3] | Ru content, Heart [1, 4] | Ru content, Kidney [1, 4] | Ru content, Liver [1, 4] | Ru content, Lung [1, 4] | Ru content, Spleen [1, 4] | Ru content, Tumor [1, 4] | Ru content, Heart [1, 5] | Ru content, Kidney [1, 5] | Ru content, Liver [1, 5] | Ru content, Lung [1, 5] | Ru content, Spleen [1, 5] | Ru content, Tumor [1, 5] | Ru content, Heart [1, 6] | Ru content, Kidney [1, 6] | also measured |
| --- | --- | --- | --- | --- | --- | --- | --- | --- | --- | --- | --- | --- | --- | --- | --- | --- | --- | --- | --- | --- | --- |
| CSCc1ccccn1.[Cl-].[Cl-].[Ru+2].c1ccc(-c2ccnc3c2ccc2c(-c4ccccc4)ccnc23)cc1.c1ccc(-c2ccnc3c2ccc2c(-c4ccccc4)ccnc23)cc1 [[2]Cl2, rac-[Ru(Ph2phen)2(mtmp)]Cl2, reference compound] | 2.0 ± 0.3 %ID/g | 3.2 ± 0.4 %ID/g | 40.5 ± 3.3 %ID/g | 1.5 ± 0.3 %ID/g | 4.6 ± 0.4 %ID/g | 1.8 ± 0.3 %ID/g | 1.9 ± 0.5 %ID/g | 2.0 ± 0.4 %ID/g | 29.5 ± 1.9 %ID/g | 1.6 ± 0.2 %ID/g | 2.2 ± 0.5 %ID/g | 6.5 ± 0.5 %ID/g | 1.8 ± 0.3 %ID/g | 1.7 ± 0.2 %ID/g | 16.3 ± 3.3 %ID/g | 1.7 ± 0.2 %ID/g | 2.2 ± 0.3 %ID/g | 12.3 ± 1.5 %ID/g | 1.7 ± 0.2 %ID/g | 1.9 ± 0.2 %ID/g | Ru content, Liver [1, 6]: 14.6 ± 2.3 %ID/g; Ru content, Lung [1, 6]: 1.7 ± 0.1 %ID/g; Ru content, Spleen [1, 6]: 1.6 ± 0.2 %ID/g; Ru content, Tumor [1, 6]: 2.8 ± 0.6 %ID/g; Ru content, Heart [1, 7]: 1.7 ± 0.2 %ID/g; Ru content, Kidney [1, 7]: 1.5 ± 0.1 %ID/g; Ru content, Liver [1, 7]: 7.3 ± 0.8 %ID/g; Ru content, Lung [1, 7]: 1.7 ± 0.1 %ID/g; Ru content, Spleen [1, 7]: 1.7 ± 0.2 %ID/g; Ru content, Tumor [1, 7]: 1.7 ± 0.1 %ID/g; nanoparticle formation (DLS) [2]: not; PI (U87MG cells): 6; EC50 (U87MG cells): 300 nM; TUNEL staining of tumor slices (subcutaneous U87MG tumor): induced outstanding apoptosis of tumor cells; effect of light irradiation on tumor growth, light group compared to dark group (subcutaneous U87MG tumor; n = 5): statistically nonsignificant |
| [Ru(Ph2phen)2(κ^S,κ^N-(Ac-MRGDH-NH2))]Cl2 (sidechain bridge or staple) [[1]Cl2, mixture of diastereoisomers used for the in vivo study] | 2.2 ± 0.4 %ID/g | 3.2 ± 0.3 %ID/g | 40.2 ± 2.8 %ID/g | 1.5 ± 0.2 %ID/g | 1.9 ± 0.1 %ID/g | 2.0 ± 0.5 %ID/g | 1.8 ± 0.3 %ID/g | 2.0 ± 0.2 %ID/g | 29.0 ± 1.6 %ID/g | 1.6 ± 0.2 %ID/g | 2.1 ± 0.5 %ID/g | 7.3 ± 0.4 %ID/g | 1.8 ± 0.2 %ID/g | 1.7 ± 0.3 %ID/g | 16.5 ± 3.5 %ID/g | 1.6 ± 0.2 %ID/g | 2.2 ± 0.4 %ID/g | 15.7 ± 1.3 %ID/g | 1.9 ± 0.2 %ID/g | 1.9 ± 0.2 %ID/g | amount of ruthenium in the tumor higher than for the group treated with [2]Cl2 ([1]; 12 h after i.v. injection, same molar dose, P < 0.01): 28%; Ru content, Liver [1, 6]: 14.4 ± 4.3 %ID/g; Ru content, Lung [1, 6]: 1.8 ± 0.3 %ID/g; Ru content, Spleen [1, 6]: 1.9 ± 0.3 %ID/g; Ru content, Tumor [1, 6]: 7.2 ± 0.5 %ID/g; Ru content, Heart [1, 7]: 1.8 ± 0.1 %ID/g; Ru content, Kidney [1, 7]: 1.8 ± 0.2 %ID/g; Ru content, Liver [1, 7]: 6.1 ± 1.2 %ID/g; Ru content, Lung [1, 7]: 1.7 ± 0.2 %ID/g; Ru content, Spleen [1, 7]: 1.7 ± 0.2 %ID/g; Ru content, Tumor [1, 7]: 4.1 ± 1.0 %ID/g; PI (U87MG cells): 16; EC50 (U87MG cells): 2400 nM; TUNEL staining of tumor slices (subcutaneous U87MG tumor): induced outstanding apoptosis of tumor cells; antitumor efficiency compared to [2]Cl2 + light (subcutaneous U87MG tumor; single i.v. dose 7.7 mg/kg + 520 nm laser 60 J/cm^2 at DLI 12 h, 15 days, n = 5): better antitumor efficiency; effect of light irradiation on tumor growth, light group compared to dark group (subcutaneous U87MG tumor; n = 5): much stronger tumor growth suppression |
